In patent publication US20260240755A1, “Use Of Plant Cell Suspension Extracellular Vesicle-Derived Small Rnas As Cosmetic Active Ingredient” (ACTV BiYOTEKNOLOJi LABORATUVAR SANAYi VE TiCARET ANONiM …, priority 2023, published 2026):

Key:
[1] = system: H. cordata cell suspension; assay: Elicitor effect on cell suspension biomass (lyophilized cell weight); format: cell-based, Houttuynia cordata; conditions: elicitor treatment
Method: On the 14th day of the culture, the cell suspension medium was supplemented with 0.2-0.4 and 0.8 mM MeJA or SA, and the suspensions were subjected to additional incubation for 1, 2, and 3 days. After the incubation periods of H. cordata cell suspension cultures were completed, the cells were passed through a filter, and the cultures were terminated. Subsequently, cells from all groups were lyophilized. The weights of the lyophilized cells were measured and recorded.

[2] = system: H. cordata cell suspension; assay: Elicitor effect on amount of small RNA from cell suspension EVs; format: cell-based, Houttuynia cordata; conditions: for amount of RNA obtained from nutrient medium EVs compared to the control group: elicitor added on the 14th day, 0.2-0.8 mM, 1-3 days

Structure (SMILES)	quantity of H. cordata cell suspensions (lyophilized cell weight) compared to the control group [1]	amount of small RNA obtained ([2]; 0.2 mM MeJA for 72 hours) [ng/µL]	amount of small RNA relative to the control group ([2]; 0.2 mM MeJA for 72 hours) [times]	amount of RNA obtained from nutrient medium EVs compared to the control group [2]
CC/C=C\CC1C(=O)CCC1CC(=O)OC (stereo not drawn) [MeJA, Methyl jasmonate]	No statistically significant difference	3000	1.9	led to an increase
O=C(O)c1ccccc1O [SA, Salicylic acid]	No statistically significant difference	–	–	did not result in a significant increase
